The values that follow come from PMC6359800, “2-Ethoxystypandrone, a novel small-molecule STAT3 signaling inhibitor from Polygonum cuspidatum, inhibits cell growth and induces apoptosis of HCC cells and HCC Cancer stem cells” (BMC Complementary and Alternative Medicine, 2019).

Read-outs that look alike come from different tables or passages of the source. Some results are limits rather than exact numbers.

For data set [1], the system named is IL-6/STAT3 signaling pathway. The arrangement: method as in PMID 22855270. To be noted: previously reported value; read-out: IC50 against STAT3 signaling; cited from earlier work.
Data set [2] has as its system HCC CSCs isolated from HCC Huh-7 cells. Kind of data set: Tumorsphere formation assay. In kind it is cell-based, human. To be noted: 72 h. The protocol: (§1) HCC cancer stem cells were isolated from HCC Huh-7 cell line by serum-free cancer stem cell culture selection. The Huh-7 cells were collected and washed to remove serum, then suspended and plated in cancer stem cell conditioned culture medium (CSC medium) supplemented with 100 IU/ML pennicillin and 100 μg/ml streptomycin. CSC medium used for sustaining cancer stemness was serum-free DMEM/F12 containing 10 ng/ml basic fibroblast growth factor (bFGF), 20 ng/ml epidermal growth factor (EGF), 4 μg/ml heparin, 100 μg/ml apotransferrin, 25 μg/ml insulin, 9.6 μg/ml putrescin, 20 nM progesterone, 30 nM sodium selenite anhydrous, and 4 mg/ml bovine serum albumin. […]
To propagate the tumorspheres in vitro, spheres were collected by gentle centrifugation, dissociated with 0.005% trypsin-EDTA for 2 min, then added CSC medium and mechanically dissociated with a pipette to single cells. […] The dissociated single sphere-forming cells were diluted to a density of 1000 cells/ml, Then, the 1ml/well diluted cell suspension was plated to ultra-low attachment 12 wells plate and treated with indicated concentrations (0, 0.5, 1, 2, 3, 5, 8 and 10 μM) of compound 2-ethoxystypandrone for 72 h, the tumorspheres were photographed under an inverted microscope (Leica DMi8, Germany) and the tumorspheres larger than 50 μm in diameter were counted using ImageJ 1.45.

Data set [3] has as its system HepG2/STAT3-luciferase cells. Nature of the data set: MTT cell viability assay, HepG2/STAT3-luciferase cells 6.5 h. The class given is cell-based, human. To be noted: 0.016-100 μM. The protocol:
(§2) The cell growth inhibitory activities on human hepatocellular carcinoma cells were examined by the MTT (3-(4,5-dimethylthiazol–2-yl)-2,5-diphenyl tetrazolium bromide). About 3.5 × 10^4 cells per well were seeded into 96-well plates for 24 h. HepG2/STAT3 cells were then treated with vehicle control (DMSO) or 2-ethoxystypandrone (1) at indicated concentrations (0.016, 0.08, 0.4, 2, 10, 50, 100 μM) for 6.5 h. HCC Huh-7, Li-7, SK-HEP-1, HepG3B, and HepG2 cells were treated with 2-ethoxystypandrone (1) at indicated concentrations for 72 h. The assay was carried out by adding a MTT solution (20 μL, 5 mg/mL; Sigma Chemical Co.) to each well and incubating for 3 h at 37 °C to form MTT-formazan crystals by metabolically viable cells. The supernatant was aspirated, and the MTT-formazan crystals were dissolved in DMSO (150 μL). The absorbance was measured by a microplate reader (BioTek Instruments, USA) at a wavelength of 492/620 nm.
Background: Tetrazolium assays rely on reduction of a dye to a coloured formazan, in cell work by metabolically active cells.

In data set [4] the test system is STAT3 tyrosine phosphorylation (Tyrosine 705) in HepG2/STAT3 cells. Kind of data set: Western blot, IL-6-induced STAT3 tyrosine phosphorylation. The class given is cell-based, human. To be noted: 2 h pretreatment 2-100 μM, IL-6 15 min. The protocol: Expression of STAT3 and p-STAT3 proteins was analyzed by Western Blot analysis described in previous report. HepG2/STAT3 cells or HepG2 cells were grown to 70–80% confluency and then pre-treated with 2-ethoxystypandrone (1) at different concentrations (0, 2, 10, 50,100 μM) for 2 h. The cells were stimulated with IL-6 for 15 min (the phosphorylation of STAT3 appeared in the 15 min) and then lysed in Laemmli sample buffer and boiled for 5 min. Proteins were then separated by 8% SDS-PAGE and transferred to nitrocellulose membranes. Membranes were blocked in TBS containing 5% nonfat milk 0.1% and Tween 20 (TBST) for 1 h at room temperature and then incubated for 2 h in TBST containing primary antibodies and 5% bovine serum albumin. After being washed with TBST, membranes were then incubated with horseradish peroxidase-conjugated goat anti-mouse IgG (H + L) secondary antibody (#GAM007, MultiSciences) for 1 h, and finally immune complexes were detected by enhanced chemiluminescence. Primary antibodies used in Western blot were mouse anti-STAT3 (#9139,CST), mouse anti-pY-STAT3 (Tyrosine 705, #9138, CST), and mouse anti-α-tubulin (#sc5286, Santa Cruz).
Background: In western blotting, separated proteins are transferred to a membrane and probed.

A further data set has as its system HepG3B cells. Kind of data set: MTT cell viability assay, HepG3B. In kind it is cell-based. To be noted: Homo sapiens, 72 h, read-out: IC50, cell growth/viability. The protocol:
(§3) Human hepatocellular carcinoma Hep3B and HepG2 were obtained from the American Type Culture Collection. Human hepatocellular carcinoma Huh-7, Li-7 and SK-HEP-1 cells were kindly provided by Stem Cell Bank, Chinese Academy of Sciences. HepG2/STAT3 cells were cultured in α-MEM (Life Technologies, USA) with 10% FCS (Life Technologies, USA) and the rest cell lines were cultured in DMEM (Life Technologies) with 10% FCS (Life Technologies, USA).
as §2

In data set [5] the test system is Huh-7 cells. Kind of data set: MTT cell viability assay, Huh-7. In kind it is cell-based. To be noted: Homo sapiens, Huh-7, 72 h, read-out: IC50, cell growth/viability. The protocol: as §3, §2
Data set [6] deals with IL-6/STAT3 signaling pathway. Nature of the data set: STAT3-dependent luciferase reporter assay. In kind it is cell-based, human. To be noted: for IC50: HepG2/STAT3 luciferase cells, compound 1 h then IL-6 10 ng/mL 5.5 h. From the text: HepG2/STAT3 cells, a gift of Prof. Xinyuan Fu (National University of Singapore, Singapore), were the human hepatocellular carcinoma HepG2 cells stably transfected with a STAT3-responsive firefly luciferase reporter plasmid. Briefly, three tandem repeats of the oligonucleotide […], which contains the DNA binding sequence of STAT3, was artificially synthesized and introduced into the luciferase reporter vector pGL2-P plasmid (Promega). The pGL2-P/STAT3 construct was confirmed by sequencing. The luciferase reporter plasmid pGL2-P/STAT3 was used to transfect HepG2 cells using Lipofectamine 2000 (Invitrogen). The stably transfected HepG2 cell line with the pGL2-P/STAT3 plasmid was obtained by screening for G418-resistant cell clones.
The inhibitory activities on IL-6/STAT3 signaling were determined by STAT3-dependent luciferase reporter assay described in our previously report. HepG2/STAT3 cells were HepG2 cells stably transfected with a STAT3-responsive firefly luciferase reporter plasmid. The expression level of luciferase reached its peak value after 5–6 h stimulation by interleukin (IL)-6. HepG2/STAT3 cells (2 × 10^4 per well) were seeded into 96-well cell culture microplates (Corning) and allowed to grow for 48 h and then treated with compounds 1–8 (0, 0.00001, 0.0001, 0.001, 0.01, 0.1, 1, 4, 20 μM) for 1 h followed by stimulation with 10 ng/mL interleukin (IL)-6 (BD Biosciences) for 5.5 h (cells were treated with compounds 1–8 for 6.5h). Luciferase activities were measured with the Promega luciferase kit (# E4550) according to the manufacturer’s instruction. All luciferase assay experiments were carried out at least thrice in triplicate to minimize the difference caused by cell number. The JAK2/STAT3 inhibitor pyridone 6 (Merck Chemical) was used as a positive control.
In general terms: In a reporter assay the amount or activity of a reporter protein is the signal.

Data set [7] has as its system Huh-7 cells. Kind of data set: Annexin V/PI flow cytometry apoptosis, Huh-7. The class given is cell-based, human. To be noted: Huh-7, 8 μM, 24 h. The protocol:
Huh-7 cells were grown to 70–80% confluence and then treated with various concentrations (0, 2, 4, and 8 μM) of 2-ethoxystypandrone (1) for 24 h. The cells were harvested and […]. The cells were then treated with FITC Annexin V apoptosis detection kit I (BD Biosciences Pharmingen) according to the manufacturer’s protocol and the samples were immediately then analyzed by flow cytometry (BD Canto II, USA). The percentage of cells undergoing apoptosis was calculated with CELLQuest 3.0 software. The dots in the lower left quadrant, upper left quadrant, upper right quadrant, and lower right quadrant represent the viable cells, the damages cells, the cells in late apoptosis and the cells in early apoptosis, respectively.

A further data set has as its system Li-7 cells. Kind of data set: MTT cell viability assay, Li-7. The class given is cell-based. To be noted: Homo sapiens, Li-7, 72 h, read-out: IC50, cell growth/viability. The protocol: as §3, §2
A further data set relates to SK-HEP-1 cells. Nature of the data set: MTT cell viability assay, SK-HEP-1. The class given is cell-based. To be noted: Homo sapiens, SK-HEP1, SK-HEP-1, 72 h, read-out: IC50, cell growth/viability. The protocol:
as §3, §2

Data set [8] deals with human HCC cell lines (Huh-7, Li-7, SK-HEP-1, HepG3B, and HepG2). Nature of the data set: MTT cell viability assay, panel of human HCC cell lines. To be noted: five HCC cell lines, 72 h, read-out: IC50 range over tested HCC cells. In kind it is cell-based. The protocol: as §3, §2
Data set [9] deals with HCC CSCs. Nature of the data set: Annexin V flow cytometry apoptosis, HCC CSCs. In kind it is cell-based, human. The protocol: as §1
For analysis the apoptosis of HCC CSCs, the suspended tumorspheres were harvested and dissociated mechanically into single cells with 0.005% trypsin-EDTA for 2 min and the dissociated cells were re-seeded with CSC medium and treated with indicated concentrations (0, 5, 8, and 10 μM) of 2-ethoxystypandrone (1) for 24 h. The cells were harvested and then treated with FITC Annexin V apoptosis detection kit I (BD Biosciences Pharmingen, USA) according to the manufacturer’s protocol respectively and the samples were immediately then analyzed by flow cytometry (BD Canto II, USA). […]

The subject of another data set is HepG2 cells. Nature of the data set: MTT cell viability assay, HepG2. To be noted: Homo sapiens, HepG2, 72 h, read-out: IC50, cell growth/viability. In kind it is cell-based. The protocol: as §3, §2
Data set [10] has as its system HCC CSCs. Nature of the data set: PI flow cytometry cell cycle distribution, HCC CSCs. In kind it is cell-based, human. To be noted: 10 μM, 24 h. The protocol:
HCC cancer stem cells were isolated from HCC Huh-7 cell line by serum-free cancer stem cell culture selection. The Huh-7 cells were collected and washed to remove serum, then suspended and plated in cancer stem cell conditioned culture medium (CSC medium) supplemented with 100 IU/ML pennicillin and 100 μg/ml streptomycin. CSC medium used for sustaining cancer stemness was serum-free DMEM/F12 containing 10 ng/ml basic fibroblast growth factor (bFGF), 20 ng/ml epidermal growth factor (EGF), 4 μg/ml heparin, 100 μg/ml apotransferrin, 25 μg/ml insulin, 9.6 μg/ml putrescin, 20 nM progesterone, 30 nM sodium selenite anhydrous, and 4 mg/ml bovine serum albumin. The Huh-7 cells were subsequently cultured in ultra-low attachment 6-well plates at a density of 5000 cells/well, half volume of the flesh medium was exchanged every second day. After 10–14 days of culture, the most Huh-7 cells died and the cells grew up as nonadherent, three-dimensional sphere clusters.
For analysis the apoptosis of HCC CSCs, the suspended tumorspheres were harvested and dissociated mechanically into single cells with 0.005% trypsin-EDTA for 2 min and the dissociated cells were re-seeded with CSC medium and treated with indicated concentrations (0, 5, 8, and 10 μM) of 2-ethoxystypandrone (1) for 24 h. The cells were harvested and then treated with FITC Annexin V apoptosis detection kit I (BD Biosciences Pharmingen, USA) according to the manufacturer’s protocol respectively and the samples were immediately then analyzed by flow cytometry (BD Canto II, USA). […] After washing the cells with pre-cooled PBS twice, the cells were then treated with Propidium iodide (PI)/RNase Staining Buffer (BD Biosciences Pharmingen, USA) according to the manufacturer’s protocol respectively and the samples were immediately then analyzed by flow cytometry (BD Canto II,USA).

For `COC1=CC(=O)c2c(cc(C)c(C(C)=O)c2O)C1=O` [2-methoxystypandrone, 2-methoxy-6-acetyl-7-methyl-juglone], the IC50 in data set [1] was 17.2 ± 0.21 µM.
Turning to `CCOC1=CC(=O)c2c(cc(C)c(C(C)=O)c2O)C1=O` [compound 1, 2-ethoxy-6-acetyl-7-methyl-juglone], the “self-renewal and tumorsphere formation vs control” value in [2] (2 μM) was “significantly blocked self-renewal and the tumorsphere formation”. The IC50 in [2] (Homo sapiens, Huh-7, HCC CSCs, spheres larger than 50 μm counted) stood at 2.7 ± 0.28 µM; in the data set with HepG3B cells it was 16.7 ± 0.58 µM; in the data set with Huh-7 cells [5], 3.69 ± 0.51 µM; in data set [6] (Homo sapiens) it was 7.75 ± 0.18 µM; with Li-7 cells, 5.58 ± 0.89 µM; in the data set on SK-HEP-1 cells it was 8.78 µM. The IC50 in [8] is 3.69 to 20.4 µM; with HepG2 cells, 20.4 ± 2.9 µM. Also, the cell viability entry in [3] was “not completely dead”. The “IL-6-induced STAT3 tyrosine phosphorylation” value in [4] was “inhibit the IL-6-induced STAT3 tyrosine phosphorylation in a dose-dependent manner”. The “increased potency against STAT3 signaling compared with 2-methoxystypandrone” value in data set [6] (ratio of IC50 values) was determined as 2 fold. For the same compound, the total apoptosis with Huh-7 cells [7] is 88.6 ± 1.4%. In the data set on HCC CSCs [9] (10 μM, 24 h), the “percentage of apoptotic cells” value is 41.2 ± 4.3%. In the data set on HCC CSCs [9] (24 h (text; 10 μM per Fig. 5a)), this compound came in with an early apoptotic cells of 38.2 ± 4.2%. In addition, in the data set with HCC CSCs [10], the “cells in G0/G1” value amounted to 37.53 ± 1.32%. Moreover, the “cells in G2/M phase” value with HCC CSCs [10] was found to be 18.5 ± 0.36%. In the data set on HCC CSCs [10], the “cells in S phase” value was determined as 43.96 ± 1.07%.
Consider `O=C1COc2cc(O)cc(O)c21` [compound 3, 4,6-dihydroxybenzofuran-3-one], for which the IC50 in [6] (Homo sapiens) was greater than 100 µM.
`O=C(OC1C(Oc2cc(O)cc(C=Cc3ccc(O)cc3)c2)OC(CO)C(O)C1O)c1cc(O)c(O)c(O)c1` (stereo not drawn) [compound 5, polydatin-2′-O-gallate]: the IC50 in data set [6] (Homo sapiens) is greater than 100 µM.
Turning to `OC[C@H]1O[C@@H](Oc2cc(O)cc(/C=C/c3ccc(O)cc3)c2)[C@H](O)[C@@H](O)[C@@H]1O` [compound 6, polydatin], the IC50 in data set [6] (Homo sapiens) was greater than 100 µM.
For the compound `O=C(OC1Cc2c(O)cc(O)cc2OC1c1ccc(O)c(O)c1)c1cc(O)c(O)c(O)c1` (stereo not drawn) [compound 7, catechin-3-O-gallate], in data set [6] (Homo sapiens), the IC50 was greater than 100 µM.
With `CC(C)(C)c1nc2c3cc[nH]c(=O)c3c3cc(F)ccc3c2[nH]1` [pyridone 6, reference compound], the IC50 in data set [6] is 0.02 ± 0.001 µM.
